Experiment [1] has as its target T1, full length (FL) LXRβ (Homo sapiens, UniProt P55055, DUP175-175).
T1 construct: the full length (FL) proteins of LXRα (amino acids 1-447); NP005684; NP009052; expressed in transfected cells; host or cells: HEK293
T1 sequence (P55055 with tags, fused parts or gaps DUP175-175): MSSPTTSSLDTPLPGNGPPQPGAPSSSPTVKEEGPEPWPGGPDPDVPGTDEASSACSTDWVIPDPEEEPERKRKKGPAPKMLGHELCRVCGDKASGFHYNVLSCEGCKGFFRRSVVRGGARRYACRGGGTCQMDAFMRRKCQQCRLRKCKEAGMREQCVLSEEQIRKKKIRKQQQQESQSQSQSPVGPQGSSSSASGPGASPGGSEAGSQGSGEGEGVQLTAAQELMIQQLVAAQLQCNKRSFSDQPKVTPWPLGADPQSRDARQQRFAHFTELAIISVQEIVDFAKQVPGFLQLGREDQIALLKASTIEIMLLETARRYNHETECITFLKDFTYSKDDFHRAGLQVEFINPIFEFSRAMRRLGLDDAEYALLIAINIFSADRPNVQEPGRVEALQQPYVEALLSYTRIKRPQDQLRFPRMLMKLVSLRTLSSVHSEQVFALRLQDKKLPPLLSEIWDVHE
Kind of experiment: LXR Gal4 reporter transient transfection assay (FL-M2H Gal4β). The experiment is classed as cell-based. Particulars: HEK293 cells, full length LXRβ; read-out: FL-M2H Gal4β (EC50 range). The method in brief:
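Mammalian two-hybrid in HEK293: AD-LXR (FL or LBD) + BD-cofactor (SRC1 coactivator or NCoR corepressor domain), pFR-Luc reporter, pRL-CMV normaliser; PEI transfection. Compound added 4 h later (DMSO ≤0.2% final), 16 h incubation at 37 °C. Firefly/Renilla luminescence measured sequentially in lysate.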

In experiment [2] the target is T2, LXRβ ligand-binding domain (Homo sapiens, UniProt P55055, DUP175-175).
T2 construct: amino acids 156-461; NP009052; made in house; host or cells: E. coli
T2 sequence (P55055 with tags, fused parts or gaps DUP175-175 limits assumed): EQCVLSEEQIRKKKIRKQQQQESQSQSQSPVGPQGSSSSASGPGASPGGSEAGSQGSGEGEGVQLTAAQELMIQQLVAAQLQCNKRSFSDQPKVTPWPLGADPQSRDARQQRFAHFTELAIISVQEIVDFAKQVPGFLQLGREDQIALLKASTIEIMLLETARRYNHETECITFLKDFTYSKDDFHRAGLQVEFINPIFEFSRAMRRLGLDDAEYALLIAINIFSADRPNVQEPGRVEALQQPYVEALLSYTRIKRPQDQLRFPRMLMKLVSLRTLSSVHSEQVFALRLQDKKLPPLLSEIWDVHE
Put plainly: TR-FRETβ activity assay (NCoA3 coactivator peptide recruitment). The experiment is classed as biochemical. As to conditions: TR-FRET, 1 μM 24(S)-25-epoxycholesterol prestimulation; read-out: FRETβ (EC50 range). The method in brief: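 Inverse agonism assessed by loss of coactivator recruitment, read as TR-FRET 665/615 nm after 1 h equilibration at 4 °C, in triplicate. Ten-point titration from 50 μM to 0.002 μM against LXRβ LBD (76 nM, GST fusion) prestimulated with 1 μM 24(S)-25-epoxycholesterol, with 400 nM NCoA3 peptide, pH 6.8. Sulfonyl acetic acids kept as 20 mM DMSO stocks with 100 mM TFA.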
On the technique in general: TR-FRET usually uses a lanthanide donor and a delayed reading to cut background.

Experiment [3] has as its target T3, full length (FL) LXRα (Homo sapiens, UniProt Q13133).
T3 construct: the full length (FL) proteins of LXRα (amino acids 1-447); NP005684; expressed in transfected cells; host or cells: HEK293
T3 sequence (Q13133 1-447): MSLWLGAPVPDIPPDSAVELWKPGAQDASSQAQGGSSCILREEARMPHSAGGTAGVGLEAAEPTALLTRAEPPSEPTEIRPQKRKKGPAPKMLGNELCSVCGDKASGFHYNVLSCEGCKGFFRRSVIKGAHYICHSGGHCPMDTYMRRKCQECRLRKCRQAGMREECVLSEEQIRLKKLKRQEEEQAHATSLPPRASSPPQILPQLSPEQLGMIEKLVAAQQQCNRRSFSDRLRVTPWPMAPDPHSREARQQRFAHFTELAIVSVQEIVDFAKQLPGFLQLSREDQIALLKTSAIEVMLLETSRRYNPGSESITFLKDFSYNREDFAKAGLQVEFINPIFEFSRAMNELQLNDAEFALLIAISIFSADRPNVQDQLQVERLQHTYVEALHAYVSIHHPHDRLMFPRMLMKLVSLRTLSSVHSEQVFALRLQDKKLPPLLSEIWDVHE
Put plainly: LXR Gal4 reporter transient transfection assay (FL-M2H Gal4α). The experiment is classed as cell-based. As to conditions: HEK293 cells, full length LXRα; read-out: FL-M2H Gal4α (EC50 range). The method, then: The tested compounds were usually dissolved, tested and stored as 20 mM stock solutions in DMSO. Since sulfonyl acetic acid derivatives tend to decarboxylate under these conditions, these stock solutions were prepared, tested and stored as 20 mM DMSO stock solutions containing 100 mM trifluoroacetic Acid (5 equivalents). Sulfonyl acetic acid derivatives are shelf stable as solid at rt for long time as reported by Griesbrecht et al. (Synlett 2010:374) or Faucher et al. (J. Med. Chem. 2004; 47:18).
LXR Gal4 Reporter Transient Transfection Assays
LXRα and LXRβ activity status was determined via detection of interaction with coactivator and corepressor proteins in mammalian two-hybrid experiments (M2H). For this, via transient transfection the full length (FL) proteins of LXRα (amino acids 1-447; NP005684; SEQ ID NO:1) or LXRβ-(amino acids 1-461; NP009052; SEQ ID NO:2) or the ligand-binding domains (LBD) of LXRα (amino acids 155-447 SEQ ID NO:3) or LXRβ (amino acids 156-461; SEQ ID NO:4) were expressed from pCMV-AD (Stratagene) as fusions to the transcriptional activation domain of NFkB. As cofactors, domains of either the steroid receptor coactivator 1 (SRC1; amino acids 552-887; SEQ ID NO:5) or of the corepressor NCoR (amino acids 1906-2312; NP006302; SEQ ID NO:6) were expressed as fusions to the DNA binding domain of the yeast transcription factor GAL4 (from pCMV-BD; Stratagene). Interaction was monitored via activation of a coexpressed Firefly Luciferase Reporter gene under control of a promoter containing repetitive GAL4 response elements (vector pFRLuc; Stratagene). Transfection efficiency was controlled via cotransfection of constitutively active pRL-CMV Renila reniformis luciferase reporter (Promega). HEK293 cells were grown in minimum essential medium (MEM) with 2 mM L-glutamine and Earle's balanced salt solution supplemented with 8.3% fetal bovine serum, 0.1 mM non-essential amino acids, 1 mM sodium pyruvate, at 37° C. in 5% CO2. 3.5×10^4 cells/well were plated in 96-well cell culture plates in growth medium supplemented with 8.3% fetal bovine serum for 16-20 h to ˜90% confluency. For transfection, medium was taken off and LXR and cofactor expressing plasmids as well as the reporter plasmids are added in 30 μL OPTIMEM/well including polyethylene-imine (PEI) as vehicle. Typical amounts of plasmids transfected/well: pCMV-AD-LXR (5 ng), pCMV-BD-cofactor (5 ng), pFR-Luc (100 ng), pRL-CMV (0.5 ng). Compound stocks were prepared in DMSO, prediluted in MEM to a total volume of 120 μL, and added 4 h after addition of the transfection mixture (final vehicle concentration not exceeding 0.2%). Cells were incubated for additional 16 h, lysed for 10 min in 1× Passive Lysis Buffer (Promega) and Firefly and Renilla luciferase activities were measured sequentially in the same cell extract using buffers containing D-luciferine and coelenterazine, respectively. Measurements of luminescence were done in a BMG-luminometer.

As a reminder, the EC50 is the concentration at which the effect is half-maximal.

Take `Cc1ccc(S(=O)(=O)n2c(-c3cccc(N4CC(C(=O)O)C4)c3)c(-c3ccsc3CCO)c3cc(F)ccc32)cc1` [3/27]: the EC50 in experiment [1] was in the range of 100 to 1000 nM; in experiment [2], 1000 to 10000 nM; in experiment [3], 100 to 1000 nM.

On to `Cc1ccc(S(=O)(=O)n2c(-c3cccc(N4CC(C(=O)O)C4)c3)c(-c3ccsc3C(F)(F)F)c3cc(F)ccc32)cc1` [3/30], for which the EC50 in experiment [1] was < 100 nM; in experiment [2] it was 100 to 1000 nM; in experiment [3], < 100 nM.

For `Cc1ccc(S(=O)(=O)n2c(-c3cccc(N4CC(C(=O)O)C4)c3)c(-c3ccccc3C3COC3)c3cc(F)ccc32)cc1` [3/31], the EC50 in experiment [1], in experiment [2] and in experiment [3] was 100 to 1000 nM throughout.

Regarding `COc1ccc(S(=O)(=O)n2c(-c3cccc(N4CC(C(=O)O)C4)c3)c(-c3ccsc3C#N)c3cc(F)ccc32)cc1` [3/33], the concentration for a half-maximal effect (EC50) is < 100 nM in experiment [1], 1000 to 10000 nM in experiment [2] and 100 to 1000 nM in experiment [3].

For `N#Cc1sccc1-c1c(-c2cccc(N3CC(C(=O)O)C3)c2)n(S(=O)(=O)c2ccc(C(F)(F)F)cc2)c2ccc(F)cc12` [3/34], the EC50 is < 100 nM in experiment [1], 100 to 1000 nM in experiment [2] and 100 to 1000 nM in experiment [3].

Regarding `N#Cc1sccc1-c1c(-c2cccc(N3CC(C(=O)O)C3)c2)n(S(=O)(=O)c2ccc(C(F)F)cc2)c2ccc(F)cc12` [3/35], the EC50 in experiment [1] is < 100 nM; in experiment [2], 100 to 1000 nM; in experiment [3], 100 to 1000 nM.

Consider `CC1CCN(S(=O)(=O)n2c(-c3cccc(N4CC(C(=O)O)C4)c3)c(-c3ccsc3C#N)c3cc(F)ccc32)CC1` [3/36], for which the EC50 in experiment [1] is 100 to 1000 nM; in experiment [2] it was 1000 to 10000 nM; in experiment [3] it was 100 to 1000 nM.

In the case of `Cc1ccc(S(=O)(=O)n2c(-c3cccc(N4CC(C)(C(=O)O)C4)c3)c(-c3ccsc3C#N)c3cc(F)ccc32)cc1` [3/37], the values for the EC50 in experiment [1], in experiment [2] and in experiment [3] were < 100 nM, 100 to 1000 nM and < 100 nM, respectively.

For the compound `Cc1ccc(S(=O)(=O)n2c(-c3cccc(N4CCC(C(=O)O)CC4)c3)c(-c3ccsc3C#N)c3cc(F)ccc32)cc1` [3/38], the EC50 in experiment [1] was < 100 nM; in experiment [2], 100 to 1000 nM; in experiment [3], < 100 nM.

Take `Cc1ccc(S(=O)(=O)n2c(-c3cccc(C4CC(C(=O)O)C4)c3)c(-c3ccsc3C#N)c3cc(F)ccc32)cc1` (stereo not drawn) [3/39]: the EC50 in experiment [1] was < 100 nM; in experiment [2] it was 100 to 1000 nM; in experiment [3] it was 100 to 1000 nM.

In the case of `Cc1ccc(S(=O)(=O)n2c(-c3cc(N4CC(C(=O)O)C4)ccc3Cl)c(-c3ccsc3C#N)c3cc(F)ccc32)cc1` [3/40], the EC50 in experiment [1] is < 100 nM; in experiment [2], 1000 to 10000 nM; in experiment [3], 100 to 1000 nM.

Regarding `Cc1ccc(S(=O)(=O)n2c(-c3cc(N4CC(C(=O)O)C4)ccc3F)c(-c3ccsc3C#N)c3cc(F)ccc32)cc1` [3/41], the EC50 in experiment [1] is < 100 nM; in experiment [2], 1000 to 10000 nM; in experiment [3], < 100 nM.

Consider `Cc1ccc(S(=O)(=O)n2c(-c3cccc(N4CC(C(=O)O)C4)c3)c(-c3ccsc3C#N)c3cc(C#N)ccc32)cc1` [3/45], for which the values for the EC50 in experiment [1], in experiment [2] and in experiment [3] were 100 to 1000 nM, 1000 to 10000 nM and 100 to 1000 nM, respectively.

Take `Cc1ccc(S(=O)(=O)n2c(-c3cccc(-c4ccc(C(=O)O)nc4)c3)c(-c3ccsc3C#N)c3cc(F)ccc32)cc1` [3/47]: the 50% effective concentration (EC50) in experiment [1] is < 100 nM; in experiment [2], 100 to 1000 nM; in experiment [3] it was < 100 nM.

Consider `Cc1ccc(S(=O)(=O)n2c(-c3cccc(-c4ccc(C(=O)O)c(Cl)c4)c3)c(-c3ccsc3C#N)c3cc(F)ccc32)cc1` [3/49], for which the EC50 was < 100 nM in experiment [1], 100 to 1000 nM in experiment [2] and < 100 nM in experiment [3].

Consider `Cc1ccc(S(=O)(=O)n2c(-c3cccc(N4CCC(C)(C(=O)O)CC4)c3)c(-c3ccsc3C#N)c3cc(F)ccc32)cc1` [3/50], for which the EC50 in experiment [1] was < 100 nM; in experiment [2], 100 to 1000 nM; in experiment [3] it was < 100 nM.

For `Cc1ccc(S(=O)(=O)n2c(-c3cccc(N4CC(C(=O)NC(C)(C)C(=O)O)C4)c3)c(-c3ccsc3C#N)c3cc(F)ccc32)cc1` [3/52], the EC50 in experiment [1], in experiment [2] and in experiment [3] was 100 to 1000 nM each time.

As for `COc1cc(F)cc2c(-c3ccsc3C#N)c(-c3cccc(-c4ccc(C(=O)O)cc4)c3)n(S(=O)(=O)c3ccc(C)cc3)c12` [3/53], the half-maximal effective concentration (EC50) in experiment [1], in experiment [2] and in experiment [3] was < 100 nM each time.

In the case of `Cc1ccc(S(=O)(=O)n2c(-c3cccc(-c4ccc(C(=O)O)cc4)c3)c(-c3ccsc3C#N)c3cc(F)cc(O)c32)cc1` [3/54], the EC50 in experiment [1] is < 100 nM; in experiment [2] it was 100 to 1000 nM; in experiment [3], < 100 nM.

Turning to `Cc1ccc(S(=O)(=O)n2c(-c3cccc(-c4ccc(C(C)(O)C(=O)O)cc4)c3)c(-c3ccsc3C#N)c3cc(F)ccc32)cc1` (stereo not drawn) [3/55], the EC50 in experiment [1] was < 100 nM; in experiment [2], 100 to 1000 nM; in experiment [3], < 100 nM.

As to `O=C(O)c1ccc(-c2cccc(-c3c(-c4ccccc4C4COC4)c4cc(F)ccc4n3S(=O)(=O)c3ccc(Cl)cc3)c2)c(Cl)c1` [3/56], the EC50 in experiment [1], in experiment [2] and in experiment [3] was < 100 nM each time.

The values above are taken from patent publication US11618747B2, “LXR modulators with bicyclic core moiety” (OrsoBio, Inc., priority 2018, dated 2023).
